Test results taken from US6426355B1, “Heterocyclic carboxamide-containing thiourea inhibitors of herpes viruses containing phenylenediamine group” (American Home Products, priority 1998, dated 2002).
In brackets after ≈: the same amount, converted by molar mass.

Assays:
[1] = tested on: HCMV recombinant mutant virus (RV145); experiment: HCMV microtiter plate assay (beta-glucuronidase reporter); format: cell-based, Human Cytomegalovirus; settings: HCMV in human foreskin fibroblasts
Method in brief: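 Replication was read out as virus-encoded β-glucuronidase activity, measured with a chromogenic or fluorogenic glucuronide substrate in cell lysates at 96 h post-infection. Infection of human foreskin fibroblasts with RV145 took place with compound present. IC50 was derived from a range of inhibitor amounts.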

[2] = tested on: HSV-1; experiment: HSV Antiviral (ELISA) assay; format: cell-based; settings: HSV-1 in Vero cells
Method in brief: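 Replication measured as glycoprotein D signal in fixed cells: anti-gD antibody plus β-galactosidase-linked secondary, fluorogenic substrate read at 365/450 nm. Vero cells (2% FBS DMEM) received compound 30 min pre-infection, HSV-1 MOI 0.006, ~24 h incubation; IC50 relative to no-compound fluorescence.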

[3] = tested on: VZV strain Ellen; experiment: VZV Antiviral (ELISA) assay; format: cell-based; settings: VZV strain Ellen in HFF cells
Method in brief: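 Cell-based VZV (Ellen) spread assay in HFF, 3-day compound exposure in 2% FBS medium. Viral antigen quantified by fluorescent β-galactosidase ELISA; IC50 from inhibition of signal.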

Structure (SMILES)	IC50 (ug/ml) HCMV [1]	IC50 (ug/ml) HSV [2]	IC50 (ug/ml) VZV [3]
CC(C)Cc1cc(NC(=S)Nc2ccc(NC(=O)c3csnn3)cc2)cc(C(F)(F)F)c1 [Example 557]	0.006 µg/mL (≈ 0.0125 µM)	>10 µg/mL	>10 µg/mL
CN1CCN(c2cc(NC(=S)Nc3ccc(NC(=O)c4csnn4)cc3)cc(C(F)(F)F)c2)CC1 [Example 558]	0.05 µg/mL (≈ 0.0959 µM)	7 µg/mL (≈ 13.4 µM)	>10 µg/mL
O=C(Nc1ccc(NC(=S)Nc2cc(N3CCOCC3)cc(C(F)(F)F)c2)cc1)c1csnn1 [Example 559]	0.012 µg/mL (≈ 0.0236 µM)	>10 µg/mL	>10 µg/mL
O=C(Nc1ccc(NC(=S)Nc2cc(N3CCCC3)cc(C(F)(F)F)c2)cc1)c1csnn1 [Example 560]	0.008 µg/mL (≈ 0.0162 µM)	>10 µg/mL	>10 µg/mL
O=C(Nc1ccc(NC(=S)NCCc2ccc(F)cc2)cc1)c1ccco1 [Example 561]	0.05 µg/mL (≈ 0.13 µM)	>10 µg/mL	8 µg/mL (≈ 20.9 µM)
O=C(Nc1ccc(NC(=S)NCCc2cccc(Cl)c2)cc1)c1csnn1 [Example 562]	0.004 µg/mL (≈ 0.00957 µM)	>10 µg/mL	8 µg/mL (≈ 19.1 µM)
O=C(Nc1ccc(NC(=S)NCCc2cccc(Cl)c2)cc1)c1ccco1 [Example 564]	0.027 µg/mL (≈ 0.0675 µM)	>10 µg/mL	5 µg/mL (≈ 12.5 µM)
CC(NC(=S)Nc1ccc(NC(=O)c2csnn2)cc1)c1ccc(F)cc1 (stereo not drawn) [Example 565]	0.01 µg/mL (≈ 0.0249 µM)	>10 µg/mL	0.22 µg/mL (≈ 0.548 µM)
CC(NC(=S)Nc1ccc(NC(=O)c2csnn2)cc1)c1ccccc1 (stereo not drawn) [Example 588]	0.03 µg/mL (≈ 0.0782 µM)	>10 µg/mL	0.36 µg/mL (≈ 0.939 µM)
CC(NC(=S)Nc1ccc(NC(=O)c2ccco2)cc1)c1ccccc1 (stereo not drawn) [Example 590]	0.12 µg/mL (≈ 0.328 µM)	>10 µg/mL	1 µg/mL (≈ 2.74 µM)
CC(NC(=S)Nc1ccc(NC(=O)c2ccco2)cc1)c1ccc(F)cc1 (stereo not drawn) [Example 592]	0.049 µg/mL (≈ 0.128 µM)	>10 µg/mL	2 µg/mL (≈ 5.22 µM)
CC(C)CN(C)c1cc(NC(=S)Nc2ccc(NC(=O)c3csnn3)cc2)cc(C(F)(F)F)c1 [Example 594]	0.011 µg/mL (≈ 0.0216 µM)	>10 µg/mL	>10 µg/mL
O=C(Nc1ccc(NC(=S)Nc2cc(N3CCC(O)C3)cc(C(F)(F)F)c2)cc1)c1csnn1 (stereo not drawn) [Example 595]	0.022 µg/mL (≈ 0.0433 µM)	>10 µg/mL	3 µg/mL (≈ 5.9 µM)
CCCCN(C)c1cc(NC(=S)Nc2ccc(NC(=O)c3csnn3)cc2)cc(C(F)(F)F)c1 [Example 597]	0.008 µg/mL (≈ 0.0157 µM)	>10 µg/mL	>10 µg/mL
O=C(Nc1ccc(NC(=S)NCCc2cc(C(F)(F)F)cc(C(F)(F)F)c2)cc1)c1csnn1 [Example 599]	0.005 µg/mL (≈ 0.00962 µM)	>10 µg/mL	>10 µg/mL
O=C(Nc1ccc(NC(=S)Nc2ccc(F)c(C(F)(F)F)c2)cc1)c1csnn1 [Example 600]	0.012 µg/mL (≈ 0.0272 µM)	>10 µg/mL	>10 µg/mL
O=C(Nc1ccc(NC(=S)NCc2ccc(N3CCCCC3)c(C(F)(F)F)c2)cc1)c1csnn1 [Example 601]	0.0011 µg/mL (≈ 0.00211 µM)	>10 µg/mL	>10 µg/mL
CN(C)c1ccc(CNC(=S)Nc2ccc(NC(=O)c3csnn3)cc2)cc1C(F)(F)F [Example 602]	0.0015 µg/mL (≈ 0.00312 µM)	>10 µg/mL	>10 µg/mL

Structure (SMILES)	IC50 (ug/ml) HCMV [1]	IC50 (ug/ml) HSV [2]	IC50 (ug/ml) VZV [3]
Nc1ccc(CCNC(=S)Nc2ccc(NC(=O)c3ccco3)cc2)cc1 [Example 603]	>0.5 µg/mL	>10 µg/mL	>10 µg/mL
O=C(Nc1ccc(NC(=S)NCCc2ccc(Br)cc2)cc1)c1ccco1 [Example 604]	0.025 µg/mL (≈ 0.0563 µM)	>10 µg/mL	10 µg/mL (≈ 22.5 µM)
Cc1ccc(CCNC(=S)Nc2ccc(NC(=O)c3ccco3)cc2)cc1 [Example 605]	0.062 µg/mL (≈ 0.163 µM)	>10 µg/mL	10 µg/mL (≈ 26.4 µM)
O=C(Nc1ccc(NC(=S)NCCc2ccc(Br)cc2)cc1)c1csnn1 [Example 606]	0.0023 µg/mL (≈ 0.00497 µM)	>10 µg/mL	>10 µg/mL
COc1cccc(CCNC(=S)Nc2ccc(NC(=O)c3ccco3)cc2)c1 [Example 607]	0.09 µg/mL (≈ 0.228 µM)	8 µg/mL (≈ 20.2 µM)	>10 µg/mL
O=C(Nc1ccc(NC(=S)NCCOc2ccccc2)cc1)c1ccco1 [Example 626]	0.07 µg/mL (≈ 0.184 µM)	10 µg/mL (≈ 26.2 µM)	>10 µg/mL
O=C(Nc1ccc(NC(=S)NCCOc2ccccc2)cc1)c1csnn1 [Example 627]	0.014 µg/mL (≈ 0.035 µM)	10 µg/mL (≈ 25 µM)	>10 µg/mL
O=C(Nc1ccc(CNC(=S)Nc2ccc(Cl)c(Cl)c2)cc1)c1csnn1 [Example 630]	0.4 µg/mL (≈ 0.912 µM)	>10 µg/mL	4 µg/mL (≈ 9.12 µM)
O=C(Nc1ccc(CNC(=S)Nc2ccc(Cl)c(C(F)(F)F)c2)cc1)c1csnn1 [Example 631]	0.15 µg/mL (≈ 0.318 µM)	6 µg/mL (≈ 12.7 µM)	6 µg/mL (≈ 12.7 µM)
O=C(Nc1ccc(CNC(=S)Nc2cc(Cl)cc(Cl)c2)cc1)c1csnn1 [Example 635]	0.15 µg/mL (≈ 0.342 µM)	>10 µg/mL	4 µg/mL (≈ 9.12 µM)
COc1cccc(CCNC(=S)Nc2ccc(NC(=O)c3csnn3)cc2)c1 [Example 637]	0.014 µg/mL (≈ 0.0339 µM)	>10 µg/mL	>10 µg/mL
Cc1ccc(CCNC(=S)Nc2ccc(NC(=O)c3csnn3)cc2)cc1 [Example 638]	0.01 µg/mL (≈ 0.0252 µM)	>10 µg/mL	>10 µg/mL
COc1ccc(CCNC(=S)Nc2ccc(NC(=O)c3csnn3)cc2)cc1OC [Example 639]	0.07 µg/mL (≈ 0.158 µM)	>10 µg/mL	>10 µg/mL
CC(=O)Nc1cc(Cl)cc(NC(=S)Nc2ccc(NC(=O)c3csnn3)cc2)c1 [Example 644]	0.03 µg/mL (≈ 0.0671 µM)	>10 µg/mL	8 µg/mL (≈ 17.9 µM)
O=C(Nc1ccc(NC(=S)NCCc2ccc(Cl)c(Cl)c2)cc1)c1csnn1 [Example 645]	0.003 µg/mL (≈ 0.00663 µM)	>10 µg/mL	10 µg/mL (≈ 22.1 µM)
CC(CCc1ccccc1)NC(=S)Nc1ccc(NC(=O)c2csnn2)cc1 (stereo not drawn) [Example 646]	0.03 µg/mL (≈ 0.0729 µM)	>10 µg/mL	2.5 µg/mL (≈ 6.07 µM)
CC(NC(=S)Nc1ccc(NC(=O)c2csnn2)cc1)c1ccc(Br)cc1 (stereo not drawn) [Example 647]	0.007 µg/mL (≈ 0.0151 µM)	>10 µg/mL	0.1 µg/mL (≈ 0.216 µM)
